The target in this test is T1, STING (Homo sapiens, UniProt Q86WV6, G230A/H232R/R293Q/R71H).
T1 construct: host or cells: THP1-Dual KO-IFNAR2 cells
The experiment in a line: STING reporter assay: luciferase reporter activity in THP1-Dual KO-IFNAR2 cells stimulated with 2'3'cGAMP. In kind it is cell-based. The settings on record: 2′3′cGAMP 15 μM final, 24h, read-out: hSTING: EC50. The protocol: STING pathway activation by the compounds described herein was measured using THIP1-Dua1™ cells (KO-IFNAR2).
TTIP1-Dual™ KO-IFNAR2 Cells (obtained from invivogen) were maintained in RPMI, 10% FCS, 5 ml P/S, 2 mM L-glut, 10 mM Hepes, and 1 mM sodium pyruvate. Compounds were spotted in empty 384 well tissue culture plates (Greiner 781182) by Echo for a final concentration of 0.0017-100 μM. Cells were plated into the TC plates at 40 μL per well, 2×10E6 cells/mL. For activation with STING ligand, 2′3′cGAMP (MW 718.38, obtained from Invivogen), was prepared in Optimem media.
The following solutions were prepared for each 1×384 plate: • Solution A: 2 mL Optimem with one of the following stimuli: • […] • Solution B: 2 mL Optimem with 60 μL Lipofectamine 2000->Incubate 5 min at RT
2 mL of solution A and 2 ml Solution B was mixed and incubated for 20 min at room temperature (RT). 20 uL of transfection solution (A+B) was added on top of the plated cells, with a final 2′3′cGAMP concentration of 15 μM. The plates were then centrifuged immediately at 340 g for 1 minute, after which they were incubated at 37° C., 5% C02, >98% humidity for 24h. Luciferase reporter activity was then measured. EC50 values were calculated by using standard methods known in the art.
Luciferase reporter assay: 10 μL of supernatant from the assay was transferred to white 384-plate with flat bottom and squared wells. One pouch of QUANTI-Luc™ Plus was dissolved in 25 mL of water. 100 μL of QLC Stabilizer per 25 mL of QUANTI-Luc™ Plus solution was added. 50 μL of QUANTI-Luc™ Plus/QLC solution per well was then added. Luminescence was measured on a Platereader (e.g., Spectramax I3X (Molecular Devices GF3637001)).
Luciferase reporter activity was then measured. EC50 values were calculated by using standard methods known in the art.
Background: Reporter assays use an easily measured gene product as a stand-in for the process of interest.

T1 sequence (Q86WV6 whole entry R71H/G230A/H232R/R293Q): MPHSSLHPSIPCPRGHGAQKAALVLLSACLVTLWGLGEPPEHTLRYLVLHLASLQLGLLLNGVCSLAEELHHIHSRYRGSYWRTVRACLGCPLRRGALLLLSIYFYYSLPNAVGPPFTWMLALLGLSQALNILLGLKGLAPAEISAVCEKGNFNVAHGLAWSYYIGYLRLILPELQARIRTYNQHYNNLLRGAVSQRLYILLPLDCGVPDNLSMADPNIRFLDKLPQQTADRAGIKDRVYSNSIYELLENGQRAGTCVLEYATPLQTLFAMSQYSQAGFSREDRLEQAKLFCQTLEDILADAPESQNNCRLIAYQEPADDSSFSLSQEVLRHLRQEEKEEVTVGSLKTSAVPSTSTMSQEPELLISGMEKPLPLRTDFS

One may read the EC50 as the concentration needed to bring the measured effect to its halfway point. In the case of `Cn1cc(NC(=O)C(=O)NCc2ccc(C(F)(F)F)c(Cl)c2)c2cc(F)c(F)cc21` [Compound 170], the EC50 lay in the range of 5 to 100 µM.
Next, `O=C(NCc1ccc(C(F)(F)F)c(Cl)c1)C(=O)Nc1c[nH]c2ccccc12` [Compound 171]: 0.2 to 1 µM; `O=C(Nc1ccc(C(F)(F)F)cc1)C(=O)Nc1c[nH]c2cc(F)ccc12` [Compound 172]: 0.2 to 1 µM.
To `O=C(NCc1cnc(C(F)(F)F)c(Cl)c1)C(=O)Nc1c[nH]c2cc(F)c(F)cc12` [Compound 173] belongs 0.2 to 1 µM; to `O=C(Nc1c[nH]c2cc(F)c(F)cc12)C(=O)N[C@H]1CC[C@H](OCC(F)F)CC1` [Compound 174], 0.2 to 1 µM.
As for `O=C(Nc1ccc(C2CCC(F)(F)CC2)nc1)C(=O)Nc1c[nH]c2cc(F)c(F)cc12` [Compound 175], the EC50 was 0.2 to 1 µM.
Next, `O=C(NC[C@@H]1CC12CCCCC2)C(=O)Nc1c[nH]c2cc(F)c(F)cc12` [Compound 176]: 0.2 to 1 µM.
Turning to `O=C(NC[C@H]1CC12CCCCC2)C(=O)Nc1c[nH]c2cc(F)c(F)cc12` [Compound 177], the EC50 fell in the range of 0.04 to 0.2 µM.
In the case of `O=C(Nc1c[nH]c2cc(F)c(F)cc12)C(=O)NC1CCC(OCC(F)F)CC1` (centres unmarked) [Compound 178], the EC50 was in the range of 0.2 to 1 µM.
Next, `O=C(NCCC1CCC(F)(F)CC1)C(=O)Nc1c[nH]c2ccccc12` [Compound 179]: 1 to 5 µM; `O=C(Nc1ccc(C(F)(F)F)cc1)C(=O)Nc1c[nH]c2ccc(F)c(F)c12` [Compound 180]: 0.2 to 1 µM; `O=C(Nc1ccc(C(F)(F)F)c(Cl)c1)C(=O)Nc1c[nH]c2cc(F)c(F)cc12` [Compound 181]: 0.2 to 1 µM.
To `C#Cc1ccc(NC(=O)C(=O)Nc2c[nH]c3cc(F)c(F)cc23)cc1` [Compound 182] belongs 0.2 to 1 µM; to `Cc1cc(NC(=O)C(=O)Nc2c[nH]c3ccccc23)cc(C(F)(F)F)c1` [Compound 183], 0.2 to 1 µM; to `O=C(Nc1ccc(C(F)(F)F)cc1)C(=O)Nc1c[nH]c2ccc(F)cc12` [Compound 184], 0.2 to 1 µM.
For `CC[C@H]1CC[C@@H](NC(=O)C(=O)Nc2c[nH]c3cc(F)c(F)cc23)CC1` [Compound 185], the EC50 fell in the range of 0.2 to 1 µM.
To `CC[C@H]1CC[C@H](NC(=O)C(=O)Nc2c[nH]c3cc(F)c(F)cc23)CC1` [Compound 186] belongs 0.04 to 0.2 µM; to `O=C(Nc1c[nH]c2cc(F)c(F)cc12)C(=O)N[C@H]1CC[C@@H](OCC(F)F)CC1` [Compound 187], 1 to 5 µM.
Next, `O=C(NCCC12C[C@H]3C[C@@H](C1)C[C@@H](C2)C3)C(=O)Nc1c[nH]c2cc(F)c(F)cc12` [Compound 188]: 0.2 to 1 µM.
For `O=C(NCC1CC12CCCCC2)C(=O)Nc1c[nH]c2cc(F)c(F)cc12` (centres unmarked) [Compound 189], the EC50 was in the range of 0.2 to 1 µM.
To `O=C(NCCC1CC2CCC1C2)C(=O)Nc1c[nH]c2cc(F)c(F)cc12` (centres unmarked) [Compound 190] belongs 0.2 to 1 µM; to `CC(C)(C)C1CCC(NC(=O)C(=O)Nc2c[nH]c3cc(F)c(F)cc23)CC1` (centres unmarked) [Compound 191], 0.2 to 1 µM.
Next, `O=C(Nc1c[nH]c2cc(F)c(F)cc12)C(=O)N1CCCC(Oc2ccc(C(F)(F)F)cc2)C1` (centres unmarked) [Compound 195]: 0.2 to 1 µM.
In the case of `Cc1ccc(O[C@H]2C[C@H](NC(=O)C(=O)Nc3c[nH]c4cc(F)c(F)cc34)C2)cn1` [Compound 196], the concentration for a half-maximal effect (EC50) fell in the range of 0.2 to 1 µM.
To `O=C(Nc1c[nH]c2cc(F)c(F)cc12)C(=O)N[C@H]1C[C@H](Nc2ccc(C(F)(F)F)cn2)C1` [Compound 197] belongs 0.2 to 1 µM; to `O=C(Nc1c[nH]c2cc(F)c(F)cc12)C(=O)N[C@H]1C[C@@H](Oc2ccc(C(F)(F)F)nc2)C1` [Compound 198], 0.2 to 1 µM; to `Cc1ccc(O[C@H]2C[C@H](NC(=O)C(=O)Nc3c[nH]c4cc(F)c(F)cc34)C2)nc1` [Compound 199], 0.04 to 0.2 µM.
Take `O=C(NCCCOc1ccc(C(F)(F)F)nc1)C(=O)Nc1c[nH]c2cc(F)c(F)cc12` [Compound 200]: the EC50 lay within 0.2 to 1 µM.
In the case of `O=C(Nc1c[nH]c2cc(F)c(F)cc12)C(=O)N[C@H]1C[C@H](Oc2cncc(C(F)(F)F)c2)C1` [Compound 201], the EC50 lay within 0.2 to 1 µM.
Next, `O=C(Nc1c[nH]c2cc(F)c(F)cc12)C(=O)N[C@H]1CC[C@H](Nc2ccccn2)CC1` [Compound 202, N-(5,6-difluoro-1H-indol-3-yl)-N′-[trans-4-(pyridin-2-ylamino)cyclohexyl]ethanediamide]: 5 to 100 µM; `O=C(NCC(=O)N1CCc2cccnc21)C(=O)Nc1c[nH]c2cc(F)c(F)cc12` [Compound 203]: 0.2 to 1 µM; `O=C(NCC(=O)N1CCc2ccc(C(F)(F)F)cc21)C(=O)Nc1c[nH]c2cc(F)c(F)cc12` [Compound 204]: 0.04 to 0.2 µM.
To `O=C(Nc1c[nH]c2cc(F)c(F)cc12)C(=O)NC1CC2CCC(C1)C2Oc1ccc(C(F)(F)F)cc1` (centres unmarked) [Compound 205] belongs 1 to 5 µM; to `CC(C)(CO)CCCN1CCN(C(=O)C(=O)Nc2c[nH]c3cc(F)c(F)cc23)CC1` [Compound 206], 5 to 100 µM; to `O=C(Nc1c[nH]c2ccc(Cl)cc12)C(=O)N[C@H]1C[C@H](Nc2ccccn2)C1` [Compound 208], 1 to 5 µM.
Next, `O=C(Nc1c[nH]c2cc(F)c(Cl)cc12)C(=O)N[C@H]1CC[C@H](Oc2ccc(C(F)(F)F)cn2)CC1` [Compound 209, N-(5-chloro-6-fluoro-1H-indol-3-yl)-N′-(trans-4-((5-(trifluoromethyl)pyridin-2-yl)oxy)cyclohexyl)oxalamide]: 0.2 to 1 µM.
On to `O=C(Nc1c[nH]c2cc(F)c(F)cc12)C(=O)N[C@H]1C[C@H](Oc2ccc(C(F)(F)F)cn2)C1` [Compound 210], for which the EC50 is 0.2 to 1 µM.
`O=C(Nc1c[nH]c2cc(F)c(F)cc12)C(=O)N[C@H]1CC[C@H](NCC(F)(F)F)CC1` [Compound 211]: the EC50 was in the range of 1 to 5 µM.
Next, `O=C(Nc1c[nH]c2ccc(Cl)cc12)C(=O)N[C@H]1C[C@H](Oc2ccccn2)C1` [Compound 212]: 0.2 to 1 µM.
Next, `O=C(Nc1c[nH]c2ccc(Cl)cc12)C(=O)N[C@H]1CC[C@H](Oc2ccc(C(F)(F)F)cc2)CC1` [Compound 213, N-(5-chloro-1H-indol-3-yl)-N′-(trans-4-(4-(trifluoromethyl)phenoxy)cyclohexyl)oxalamide]: 0.04 to 0.2 µM.
Next, `N#Cc1cc(F)c2[nH]cc(NC(=O)C(=O)NCc3ccc(C(F)(F)F)c(Cl)c3)c2c1` [Compound 215]: 0.2 to 1 µM.
For `O=C(Nc1c[nH]c2cc(F)c(F)cc12)C(=O)N1CCN(CCc2ccc(C(F)(F)F)cc2)CC1` [Compound 216], the half-maximal effective concentration (EC50) is 1 to 5 µM.
Next, `O=C(Nc1c[nH]c2cc(F)c(F)cc12)C(=O)NC1CCC(Oc2ccc(C(F)(F)F)cc2)C1` (centres unmarked) [Compound 217]: 0.2 to 1 µM.
Turning to `O=C(Nc1c[nH]c2cc(F)c(F)cc12)C(=O)NC1CC(Oc2ccc(C(F)(F)F)cc2)C1` (centres unmarked) [Compound 218], the EC50 fell in the range of 0.2 to 1 µM.
Next, `CN1CCOc2cc(NC(=O)C(=O)Nc3c[nH]c4cc(F)c(F)cc34)cnc21` [Compound 219]: 1 to 5 µM.
In the case of `O=C(Nc1c[nH]c2cc(F)c(F)cc12)C(=O)NC1CCC(Oc2ccc(C(F)(F)F)cn2)C1` (centres unmarked) [Compound 221], the concentration giving a half-maximal response (EC50) lay within 0.2 to 1 µM.
On to `O=C(Nc1c[nH]c2cc(F)c(F)cc12)C(=O)N[C@H]1CC[C@@H](Oc2ccc(C(F)(F)F)nc2)CC1` [Compound 222], for which the EC50 lay in the range of 0.2 to 1 µM.

The values are drawn from patent US20230021448A1, “COMPOUNDS AND COMPOSITIONS FOR TREATING CONDITIONS ASSOCIATED WITH STING ACTIVITY” (IFM Due, Inc., priority 2019, published 2023).
